Assay results taken from patent US7205320B2, “Phosphodiesterase 4 inhibitors” (Memory Pharmaceuticals Corp., priority 2001, dated 2007).

What was measured:
rats [1] = assay: Radial arm maze task in rats, in vivo test for learning and memory (MK-801 amnesia); set-up: species or system rat; conditions: MK-801 0.1 mg/kg, i.p., p<0.01
Protocol: Radial Arm Maze Task in Rats, an In vivo Test for Learning and Memory
The test was performed as previously described (Zhang, H.-T., Crissman, A. M., Dorairaj, N. R., Chandler, L. J., and O'Donnell, J. M., Neuropsychopharmacalogy, 2000, 23, 198–204.). Five days after initial housing, rats (male Spraque-Dawley (Harlan) weighing 250 to 350 g) were placed in the eight-arm radial maze (each arm was 60×10×12 cm high; the maze was elevated 70 cm above the floor) for acclimation for two days. Rats were then placed individually in the center of the maze for 5 minutes with food pellets placed close to the food wells, and then, the next day, in the wells at the end of the arms; 2 sessions a day were conducted. Next, four randomly selected arms were then baited with one pellet of food each. […] Four parameters were recorded: […]) working memory errors, i.e., entries into baited arms that had already been visited during the same trial; 2) reference memory errors, i.e., entries into unbaited arms; 3) total arm entries; and 4) the test duration (seconds), i.e., the time spent in the collection of all the pellets in the maze. […]
(§1) All data were analyzed by analyses of variance (ANOVA); individual comparisons were made using Kewman-Keuls tests. […]

rats [2] = assay: Passive avoidance in rats, in vivo test for learning and memory (MK-801 amnesia); set-up: species or system rat; conditions: MK-801 0.1 mg/kg pretreatment, 24 hours after shock, p<0.001
Protocol: Passive Avoidance in Rats, an In vivo Test for Learning and Memory
The test was performed as previously described (Zhang, H.-T., Crissman, A. M., Dorairaj, N. R., Chandler, L. J., and O'Donnell, J. M., Neuropsychopharmacology, 2000, 23, 198–204.). The apparatus (Model E10-16SC, Coulbourn Instruments, Allentown, Pa.) consisted of a two-compartment chamber with an illuminated compartment connected to a darkened compartment by a guillotine door. The floor of the darkened compartment consisted of stainless steel rods through which an electric foot-shock could be delivered from a constant current source. All experimental groups were first habituated to the apparatus the day before the start of the experiment. During the training, the rat (Male Spraque-Dawley (Harlan) weighing 250 to 350 g) was placed in the illuminated compartment facing away from the closed guillotine door for 1 minute before the door was raised. The latency for entering the darkened compartment was recorded. After the rat entered the darkened compartment, the door was closed and a 0.5 mA electric shock was administered for 3 seconds. […] The latency for entering the darkened compartment was recorded for up to 180 seconds, at which time the trial was terminated.
as §1

## C[C@]12N[C@H](Cc3ccccc31)c1ccccc12 [MK-801]
Rats [1]
  Frequencies of working and reference memory errors compared to control: increased
Rats [2]
  Latency for entering the darkened compartment compared to the vehicle: markedly reduced
